Assay results taken from article PMC6270413 (2013).

Legend:
[1] = test system: C-myc quadruplex (DNA, G4) TGGGGAGGGTGGGGAGGGTGGGGAAGG; assay: circular dichroism titration; settings: K+ 100 mM (KCl); 10 mM Tris-HCl, 0.1 mM EDTA, pH 7.5, 20 °C; 10 µM strand; induced CD only above ratio two
[2] = test system: C-myc quadruplex (DNA, G4) TGGGGAGGGTGGGGAGGGTGGGGAAGG; assay: fluorescent intercalator displacement titration; settings: K+ 100 mM (KCl); 10 mM Tris-HCl, 0.1 mM EDTA, pH 7.5; thiazole orange displaced
[3] = test system: C-myc quadruplex (DNA, G4) TGGGGAGGGTGGGGAGGGTGGGGAAGG; assay: UV-Vis absorption (hypochromism, 19 nm bathochromic shift); settings: K+ 100 mM (KCl); 10 mM Tris-HCl, 0.1 mM EDTA, pH 7.5, 22–24 °C; 5 µM DNA, 5 µM ligand
[4] = test system: TFO C-myc duplex (Table 2: C-myc duplex) (DNA, duplex) AGGGAGGGAGGTAAGAAAAAGGG/CCCTTTTTCTTACCTCCCTCCCT; assay: FID screen (thiazole orange displacement, single concentration); settings: K+ 100 mM (KCl); 10 mM Tris-HCl, 0.1 mM EDTA, pH 7.5, 21–23 °C; 0.25 µM duplex, 0.50 µM TO, ligand 1:1
[5] = test system: C-myc quadruplex (DNA, G4) TGGGGAGGGTGGGGAGGGTGGGGAAGG; assay: fluorescence titration; settings: K+ 100 mM (KCl); 10 mM Tris-HCl, 0.1 mM EDTA, pH 7.5

Row | Structure (SMILES) | binding [1] | DC50 [2] [µM] | binding [3] | binding [4] | binding [5]
1 | CN1CCN(c2ccc3nc(-c4ccc5nc(-c6ccc(O)cc6)[nH]c5c4)[nH]c3c2)CC1 | yes | 1.58 ± 0.01 | yes | yes | 
2 | NC[C@@H]1O[C@H](O[C@H]2[C@@H](O)[C@H](O[C@@H]3[C@@H](O)[C@H](N)C[C@H](N)[C@H]3O[C@H]3O[C@H](CN)[C@@H](O)[C@H](O)[C@H]3N)O[C@@H]2CO)[C@H](N)[C@@H](O)[C@@H]1O |  | > 5.5 |  |  | 
3 | CN1C(=Cc2cc[n+](C)c3ccccc23)Sc2ccccc21 |  |  |  |  | yes
